Here are results for twelve compounds from ChEMBL document CHEMBL1134024, “Synthesis and structure-activity studies of side-chain derivatized arylhydantoins for investigation as androgen receptor radioligands” (Bioorg Med Chem Lett, 2001).

Usually Ki stands for the equilibrium dissociation constant of an inhibitor or competing ligand from its target. Low readings indicate tighter binding, high ones weaker binding.

The target in assay [1] is T1, Androgen receptor (Rattus norvegicus, UniProt P15207).
T1 sequence (P15207 whole entry): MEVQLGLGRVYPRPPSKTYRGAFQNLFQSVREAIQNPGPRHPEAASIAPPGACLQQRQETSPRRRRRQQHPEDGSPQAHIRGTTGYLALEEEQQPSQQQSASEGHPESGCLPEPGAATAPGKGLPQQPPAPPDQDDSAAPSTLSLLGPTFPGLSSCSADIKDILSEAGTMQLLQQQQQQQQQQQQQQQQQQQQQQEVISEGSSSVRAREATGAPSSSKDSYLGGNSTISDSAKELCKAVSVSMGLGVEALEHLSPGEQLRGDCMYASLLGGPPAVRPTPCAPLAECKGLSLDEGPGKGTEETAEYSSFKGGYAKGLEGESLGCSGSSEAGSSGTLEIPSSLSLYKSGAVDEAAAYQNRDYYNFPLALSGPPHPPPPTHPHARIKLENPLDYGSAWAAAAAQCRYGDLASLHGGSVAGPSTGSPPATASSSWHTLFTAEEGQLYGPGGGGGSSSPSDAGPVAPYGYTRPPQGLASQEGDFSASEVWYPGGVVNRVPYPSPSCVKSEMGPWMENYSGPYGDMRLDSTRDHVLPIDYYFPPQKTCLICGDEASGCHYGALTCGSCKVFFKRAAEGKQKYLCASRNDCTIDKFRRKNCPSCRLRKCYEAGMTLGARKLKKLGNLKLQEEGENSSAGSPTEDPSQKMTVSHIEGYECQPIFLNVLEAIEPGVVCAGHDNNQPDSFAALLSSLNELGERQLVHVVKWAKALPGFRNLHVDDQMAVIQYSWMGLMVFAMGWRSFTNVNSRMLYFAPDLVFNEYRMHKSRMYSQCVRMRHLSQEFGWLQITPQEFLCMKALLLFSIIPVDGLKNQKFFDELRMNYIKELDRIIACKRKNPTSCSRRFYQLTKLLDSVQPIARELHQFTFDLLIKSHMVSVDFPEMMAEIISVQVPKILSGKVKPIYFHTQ
As to the kind of experiment: Binding affinity against rat prostate cytosolic Androgen receptor using [3H]mibolerone as radioligand.

In assay [2] the target is T2, Androgen receptor (Rattus norvegicus) (UniProt P15207).
T2 sequence (whole entry): T1 sequence (P15207 whole entry)
The settings on record: Prostate gland.
Description: Displacement of [3H]-mibolerone from rat prostate cytosolic Androgen receptor

In the case of `CC1(C)C(=O)N(c2ccc(C#N)c(C(F)(F)F)c2)C(=O)N1CCCc1ccc(I)cc1`, in assay [1], the affinity, expressed as Ki, was 65 nM.

As for `CC1(C)C(=O)N(c2ccc(C#N)c(C(F)(F)F)c2)C(=O)N1CCc1cccc(I)c1`, the Ki in assay [1] stood at 809 nM.

`CC1(C)C(=O)N(c2ccc(C#N)c(C(F)(F)F)c2)C(=O)N1CCCF`: the Ki in assay [1] was 321 nM.

The compound `CC1(C)C(=O)N(c2ccc(C#N)c(C(F)(F)F)c2)C(=O)N1CCc1ccc(I)cc1` registered a Ki in assay [1] of 415 nM.

For the compound `CC1(C)C(=O)N(c2ccc(C#N)c(C(F)(F)F)c2)C(=O)N1Cc1ccc(I)cc1`, affinity in assay [1] was put at a Ki of 150 nM.

For `CC1(C)C(=O)N(c2ccc(C#N)c(C(F)(F)F)c2)C(=O)N1Cc1cccc(I)c1`, affinity in assay [1] was put at a Ki of 123 nM.

`CC1(C)C(=O)N(c2ccc(C#N)c(C(F)(F)F)c2)C(=O)N1CCCc1cccc(I)c1` registered a Ki in assay [1] of 360 nM.

In assay [1], `CC1(C)C(=O)N(c2ccc(C#N)c(C(F)(F)F)c2)C(=O)N1CCF` registered a Ki of 141 nM.

For the compound `CN1C(=O)N(c2ccc(C#N)c(C(F)(F)F)c2)C(=O)C1(C)C`, the affinity in assay [1], expressed as Ki, was 37 nM.

In turn, `CC1(C)C(=O)N(c2ccc(C#N)c(C(F)(F)F)c2)C(=O)N1C/C=C/I` gave a Ki in assay [1] of 13 nM.

For the compound `CC1(C)C(=O)N(c2ccc(C#N)c(C(F)(F)F)c2)C(=O)N1CCCCO` [RU-58841], the Ka in assay [2] came to 1.2 nM. In assay [1], this compound showed a Ki of 26 nM.

The compound `COCCN1C(=O)N(c2ccc(C#N)c(C(F)(F)F)c2)C(=O)C1(C)C` displayed a Ki in assay [1] of 120 nM.
